In PubChem BioAssay AID256 (DTP/NCI, 2004):
“And” between values parts separate entries of the source, which are not always exact repeats. Equal entries are not always repeated. Inconclusive results and toxic doses are left out. Non-standard residues stand in square brackets, D forms with d. Residues, ends and D or L forms follow the SMILES beside them. ξ: configuration not given here. *: point of attachment. ξF = NC(Cc1ccccc1)C(=O)O; Cbz = O=C(OCc1ccccc1)*; OBn = c1ccc(CO*)cc1

Tested on: CD2F1 mice, L1210 leukemia ip, survival T/C
Assay: NCI In Vivo Anticancer Drug Screen. Data for tumor model L1210 Leukemia (intraperitoneal) in CD2F1 (CDF1) mice
Conditions: higher = longer survival
How it was run: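 Antitumor effect is scored in animals hosting a serially transplanted tumor. Values compare compound-dosed animals against vehicle-only controls as a simple quotient.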

[1] = endpoint: mean survival time, dose: 50.0 mg/kg/injection, schedule: Q01DX009 (ip), vehicle: saline with Tween-80
[2] = endpoint: mean survival time, dose: 100.0 mg/kg/injection, schedule: Q01DX009 (ip), vehicle: saline with Tween-80
[3] = endpoint: mean survival time, dose: 100.0 mg/kg/injection, schedule: Q01DX001 (ip), vehicle: saline
[4] = endpoint: mean survival time, dose: 200.0 mg/kg/injection, schedule: Q01DX001 (ip), vehicle: saline
[5] = endpoint: mean survival time, dose: 400.0 mg/kg/injection, schedule: Q01DX001 (ip), vehicle: saline
[6] = endpoint: mean survival time, dose: 25.0 mg/kg/injection, schedule: Q01DX009 (ip), vehicle: saline
[7] = endpoint: mean survival time, dose: 50.0 mg/kg/injection, schedule: Q01DX009 (ip), vehicle: saline
[8] = endpoint: mean survival time, dose: 100.0 mg/kg/injection, schedule: Q01DX009 (ip), vehicle: saline
[9] = endpoint: mean survival time, dose: 100.0 mg/kg/injection, schedule: Q04DX003 (ip), vehicle: saline
[10] = endpoint: mean survival time, dose: 200.0 mg/kg/injection, schedule: Q04DX003 (ip), vehicle: saline
[11] = endpoint: mean survival time, dose: 400.0 mg/kg/injection, schedule: Q04DX003 (ip), vehicle: saline
[12] = endpoint: mean survival time, dose: 100.0 mg/kg/injection, schedule: Q04DX003 (ip), vehicle: saline with Tween-80
[13] = endpoint: mean survival time, dose: 200.0 mg/kg/injection, schedule: Q04DX003 (ip), vehicle: saline with Tween-80
[14] = endpoint: mean survival time, dose: 400.0 mg/kg/injection, schedule: Q04DX003 (ip), vehicle: saline with Tween-80
[15] = endpoint: mean survival time, dose: 200.0 mg/kg/injection, schedule: Q01DX009 (ip), vehicle: saline with Tween-80
[16] = endpoint: mean survival time, dose: 400.0 mg/kg/injection, schedule: Q01DX009 (ip), vehicle: saline with Tween-80
[17] = endpoint: mean survival time, dose: 100.0 mg/kg/injection, schedule: Q04DX002 (ip), vehicle: other
[18] = endpoint: mean survival time, dose: 100.0 mg/kg/injection, schedule: Q04DX002 (ip), vehicle: saline with Tween-80
[19] = endpoint: mean survival time, dose: 200.0 mg/kg/injection, schedule: Q04DX002 (ip), vehicle: other
[20] = endpoint: mean survival time, dose: 200.0 mg/kg/injection, schedule: Q04DX002 (ip), vehicle: saline with Tween-80
[21] = endpoint: mean survival time, dose: 400.0 mg/kg/injection, schedule: Q04DX002 (ip), vehicle: other
[22] = endpoint: mean survival time, dose: 400.0 mg/kg/injection, schedule: Q04DX002 (ip), vehicle: saline with Tween-80
[23] = endpoint: mean survival time, dose: 100.0 mg/kg/injection, schedule: Q01DX001 (ip), vehicle: saline with Tween-80

Nc1ccn([C@@H](C=O)C[C@@H](C=O)CO)c(=O)n1
T/C (endpoint: median survival time, dose: 25.0 mg/kg/injection, schedule: Q01DX009 (ip), vehicle: saline): 107 % of control
T/C (endpoint: median survival time, dose: 50.0 mg/kg/injection, schedule: Q01DX009 (ip), vehicle: saline): 121 % of control and 112 % of control
T/C (endpoint: median survival time, dose: 100.0 mg/kg/injection, schedule: Q01DX009 (ip), vehicle: saline): 121 % of control and 124 % of control
T/C (endpoint: median survival time, dose: 400.0 mg/kg/injection, schedule: Q01DX009 (ip), vehicle: saline): 153 % of control and 161 % of control

CC12c3ccccc3C(c3ccccc31)C1C(=O)OC(=O)C12 (stereo not drawn)
T/C [1]: 95 % of control
T/C [2]: 103 % of control

C=C1OC(n2cnc3c(N)ncnc32)C(O)C1O (stereo not drawn)
T/C [3]: 98 % of control
T/C [4]: 101 % of control
T/C [5]: 98 % of control

NC1(CO)COC(c2ccccc2)OC1 (stereo not drawn)
T/C [6]: 93 % of control
T/C [7]: 96 % of control
T/C [8]: 96 % of control

CN1NC(=O)C2CCCC1O2 (stereo not drawn)
T/C (endpoint: mean survival time, dose: 12.5 mg/kg/injection, schedule: Q01DX009 (ip), vehicle: saline): 106 % of control
T/C [6]: 102 % of control
T/C [7]: 105 % of control
T/C [8]: 111 % of control

CC(C)NC(=O)CCCn1c(=O)c2ccccc2c(=O)n1C
T/C (endpoint: mean survival time, dose: 25.0 mg/kg/injection, schedule: Q04DX003 (ip), vehicle: saline): 104 % of control
T/C (endpoint: mean survival time, dose: 50.0 mg/kg/injection, schedule: Q04DX003 (ip), vehicle: saline): 96 % of control
T/C [9]: 101 % of control
T/C [10]: 96 % of control
T/C [11]: 98 % of control

O=C(CNC(=O)OCc1ccccc1)NCC(=O)NC(Cc1ccccc1)C(=O)OCc1ccccc1 (stereo not drawn) (Cbz-Gly-Gly-[ξF]-OBn)
T/C [12]: 97 % of control
T/C [13]: 103 % of control
T/C [14]: 99 % of control

Nc1cccc2ccc(S(=O)(=O)O)cc12
T/C [2]: 101 % of control
T/C [15]: 106 % of control

OCC(Cl)(Cl)Cl
T/C [12]: 93 % of control
T/C [13]: 97 % of control
T/C [14]: 101 % of control

O=C(O)C1(C(=O)O)CCCCC1.[NH2-].[NH2-].[Pt+2]
T/C (endpoint: mean survival time, dose: 12.5 mg/kg/injection, schedule: Q04DX003 (ip), vehicle: suspension in saline): 108 % of control
T/C (endpoint: mean survival time, dose: 25.0 mg/kg/injection, schedule: Q04DX003 (ip), vehicle: suspension in saline): 122 % of control
T/C (endpoint: mean survival time, dose: 80.0 mg/kg/injection, schedule: Q04DX003 (ip), vehicle: saline): 182 % of control
T/C (endpoint: mean survival time, dose: 100.0 mg/kg/injection, schedule: Q04DX003 (ip), vehicle: suspension in saline): 112 % of control

S=c1ssc(-c2ccccc2)c1-c1ccccc1
T/C [2]: 97 % of control
T/C [12]: 87 % of control
T/C [15]: 100 % of control
T/C [13]: 92 % of control
T/C [16]: 106 % of control
T/C [14]: 93 % of control

CCCN=C(N)C(N)=NCCC (tested in a mixture with another compound)
T/C [17]: 106 % of control
T/C [18]: 95 % of control
T/C [19]: 103 % of control
T/C [20]: 100 % of control
T/C [21]: 91 % of control
T/C [22]: 91 % of control

C(=N\N=C\c1ccccc1)/c1ccccc1
T/C [23]: 100 % of control
T/C [12]: 103 % of control
T/C (endpoint: mean survival time, dose: 200.0 mg/kg/injection, schedule: Q01DX001 (ip), vehicle: saline with Tween-80): 100 % of control
T/C [13]: 91 % of control
T/C (endpoint: mean survival time, dose: 400.0 mg/kg/injection, schedule: Q01DX001 (ip), vehicle: saline with Tween-80): 97 % of control
T/C [14]: 96 % of control

COc1c(NC(=O)Nc2ccccc2Cl)cccc1[N+](=O)[O-]
T/C (endpoint: mean survival time, dose: 25.0 mg/kg/injection, schedule: Q04DX002 (ip), vehicle: saline with Tween-80): 87 % of control
T/C (endpoint: mean survival time, dose: 50.0 mg/kg/injection, schedule: Q04DX002 (ip), vehicle: saline with Tween-80): 90 % of control
T/C [18]: 90 % of control

Nc1ncnc2c1ncn2C1OC2COP(=O)(O)OC2C1OCc1ccccc1 (stereo not drawn)
T/C (endpoint: mean survival time, dose: 100.0 mg/kg/injection, schedule: Q01DX005 (ip), vehicle: saline): 103 % of control
T/C (endpoint: mean survival time, dose: 200.0 mg/kg/injection, schedule: Q01DX005 (ip), vehicle: saline): 94 % of control

CN(CCC#N)C(=O)Nc1ccc(Cl)cc1
T/C [17]: 106 % of control
T/C [19]: 101 % of control
T/C [21]: 106 % of control

C(=C(c1ccccc1)c1ccccc1)=C(c1ccccc1)c1ccccc1
T/C [2]: 93 % of control
T/C [12]: 100 % of control
T/C [15]: 90 % of control
T/C [13]: 97 % of control
T/C [16]: 90 % of control
T/C [14]: 95 % of control

CCCC(C)CC1CCC(N)CC1 (stereo not drawn)
T/C (endpoint: mean survival time, dose: 100.0 mg/kg/injection, schedule: Q04DX002 (ip), vehicle: saline): 96 % of control
T/C (endpoint: mean survival time, dose: 200.0 mg/kg/injection, schedule: Q04DX002 (ip), vehicle: saline): 96 % of control

CCOC(=O)C1(C(=O)OCC)CC2(COC(c3ccccc3)OC2)C1
T/C [9]: 97 % of control
T/C [10]: 97 % of control
T/C [11]: 95 % of control

Cc1ccc(C(=O)O)s1
T/C [12]: 91 % of control
T/C [13]: 97 % of control

CC(=O)c1c(C)cc(=O)[nH]c1C
T/C [18]: 96 % of control
T/C [20]: 96 % of control
T/C [22]: 100 % of control

O=C(CNC(=O)Nc1ccc(F)cc1)NNC(=O)Nc1ccc(Cl)c([N+](=O)[O-])c1
T/C [15]: 92 % of control
T/C [16]: 88 % of control

Cc1ccc(S(=O)(=O)SCC(=O)c2ccc([N+](=O)[O-])cc2)cc1
T/C [3]: 94 % of control
T/C (endpoint: mean survival time, dose: 100.0 mg/kg/injection, schedule: Q01DX009 (ip), vehicle: saline sonified): 96 % of control
T/C [4]: 92 % of control
T/C (endpoint: mean survival time, dose: 200.0 mg/kg/injection, schedule: Q01DX009 (ip), vehicle: saline sonified): 97 % of control
T/C [5]: 92 % of control

CCCCNC(=O)/C=C\C(=O)O
T/C [12]: 97 % of control
T/C [13]: 100 % of control
T/C [14]: 100 % of control

CCCCC[CH2][Sn](=[O])[CH2]CCCCC
T/C [12]: 100 % of control
T/C [13]: 97 % of control
T/C [14]: 111 % of control

CC1(C)C=CC(=O)c2ccccc21
T/C [12]: 94 % of control
T/C [13]: 100 % of control
T/C [14]: 101 % of control

CCCCN(CCCC)C1=C(Cl)C(=O)c2ccccc2C1=O
T/C (endpoint: mean survival time, dose: 25.0 mg/kg/injection, schedule: Q04DX003 (ip), vehicle: saline with Tween-80): 98 % of control
T/C (endpoint: mean survival time, dose: 50.0 mg/kg/injection, schedule: Q04DX003 (ip), vehicle: saline with Tween-80): 98 % of control
T/C [12]: 91 % of control

COc1cc(C2CNCc3cc(O)c(OC)cc32)ccc1O (stereo not drawn)
T/C (endpoint: mean survival time, dose: 75.0 mg/kg/injection, schedule: Q01DX001 (ip), vehicle: saline): 106 % of control
T/C (endpoint: mean survival time, dose: 150.0 mg/kg/injection, schedule: Q01DX001 (ip), vehicle: saline): 102 % of control

CN(C)c1ccc(C(=O)OOOOC(c2ccc(N(C)C)cc2)(c2ccc(N(C)C)cc2)c2ccc(N(C)C)cc2)cc1
T/C (endpoint: mean survival time, dose: 50.0 mg/kg/injection, schedule: Q01DX001 (ip), vehicle: saline): 95 % of control
T/C [3]: 95 % of control
T/C [4]: 107 % of control
T/C [5]: 89 % of control

Nc1ccc(N=Nc2ccc(N(CCCl)CCCl)cc2)cc1
T/C (endpoint: mean survival time, dose: 33.0 mg/kg/injection, schedule: Q01DX001 (ip), vehicle: Klucel (hydroxypropylcellulose) (HPC)): 96 % of control
T/C (endpoint: mean survival time, dose: 66.0 mg/kg/injection, schedule: Q01DX001 (ip), vehicle: Klucel (hydroxypropylcellulose) (HPC)): 91 % of control
T/C (endpoint: mean survival time, dose: 132.0 mg/kg/injection, schedule: Q01DX001 (ip), vehicle: Klucel (hydroxypropylcellulose) (HPC)): 91 % of control

CCCCCCCCN(C)C
T/C (endpoint: mean survival time, dose: 25.0 mg/kg/injection, schedule: Q01DX009 (ip), vehicle: saline with Tween-80): 91 % of control
T/C [1]: 87 % of control

CC1=C(C)C(=O)C(SC2CC(=O)OC2=O)=C(C)C1=O (stereo not drawn)
T/C (endpoint: mean survival time, dose: 25.0 mg/kg/injection, schedule: Q01DX001 (ip), vehicle: saline with Tween-80): 108 % of control
T/C (endpoint: mean survival time, dose: 50.0 mg/kg/injection, schedule: Q01DX001 (ip), vehicle: saline with Tween-80): 96 % of control
T/C [23]: 104 % of control
